Series [1] concerns the target T1, Oxysterols receptor LXR-alpha (Homo sapiens) (UniProt Q13133).
T1 sequence (whole entry): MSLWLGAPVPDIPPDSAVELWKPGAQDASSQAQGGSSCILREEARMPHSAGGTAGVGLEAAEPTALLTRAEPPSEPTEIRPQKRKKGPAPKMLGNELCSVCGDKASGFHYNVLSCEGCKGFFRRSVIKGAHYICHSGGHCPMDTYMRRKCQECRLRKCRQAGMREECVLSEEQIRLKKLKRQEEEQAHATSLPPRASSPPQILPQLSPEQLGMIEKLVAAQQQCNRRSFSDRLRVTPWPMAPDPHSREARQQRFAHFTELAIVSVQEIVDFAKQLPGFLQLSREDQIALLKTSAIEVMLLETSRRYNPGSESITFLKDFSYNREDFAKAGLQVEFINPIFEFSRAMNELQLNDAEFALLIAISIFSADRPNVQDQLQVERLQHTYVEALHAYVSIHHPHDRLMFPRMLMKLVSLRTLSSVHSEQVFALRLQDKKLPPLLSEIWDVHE
Description: Agonist activity at LXRalpha in human HepG2 cells assessed as upregulation of ABCA1 protein expression level at 25 uM incubated for 24 hrs by Western blot analysis. The format is cell-based. As to conditions: filed as agonist. (Immunoblotting shows a protein as a band on a membrane.)

In series [2] the target is T1, Oxysterols receptor LXR-alpha (Homo sapiens). Description: Agonist activity at LXRalpha in human HepG2 cells assessed as upregulation of ABCA1 mRNA expression by measuring fold change at 25 uM incubated for 24 hrs by RT-qPCR analysis. As to conditions: filed as agonist. It counts as cell-based. On the technique in general: Real-time PCR tracks product formation cycle by cycle.

The target is the same in series [3]. Description: Agonist activity at LXRalpha in human HepG2 cells assessed as upregulation of CYP7A1 mRNA expression by measuring fold change at 25 uM incubated for 24 hrs by RT-qPCR analysis. It counts as cell-based. As to conditions: filed as agonist.
Series [4] relates to HepG2. Description: Effect on LXRbeta mRNA expression in human HepG2 cells at 25 uM incubated for 24 hrs by RT-qPCR analysis. It counts as functional, cell-based.
For series [5], the system named is HepG2. Description: Effect on ABCG1 mRNA expression in human HepG2 cells at 25 uM incubated for 24 hrs by RT-qPCR analysis. It counts as functional, cell-based.
A short description of series [6]: Cytotoxicity against human HepG2 cells assessed as reduction in cell viability incubated for 24 hrs by CCK8 assay. It counts as toxicity, cell-based.
In series [7] the target is T1, Oxysterols receptor LXR-alpha (Homo sapiens). Description: Agonist activity at LXRalpha in human HepG2 cells assessed as upregulation of CYP7A1 protein expression level at 25 uM incubated for 24 hrs by Western blot analysis. The format is cell-based. As to conditions: filed as agonist.
Series [8] concerns the target T2, Oxysterols receptor LXR-alpha (Homo sapiens, UniProt Q13133).
T2 sequence (Q13133 whole entry): T1 sequence (whole entry)
Description: Binding affinity to full length human LXRalpha assessed as dissociation constant by SPR analysis. In general terms: In SPR one partner is held on a chip, and binding of the other changes the refractive index at the surface.

For series [9], the system named is HepG2. Description: Improvement of lipid metabolism in palmitic acid and oleic acid induced human HepG2 cell model of hepatic steatosis assessed as reduction in lipid droplets at 25 uM preincubated with palmitic acid and oleic acid for 48 hrs followed by compound addition and measured after 24 hrs by Oil Red O staining based analysis. It counts as functional.
In series [10] the test system is HepG2. Description: Improvement of lipid metabolism in palmitic acid and oleic acid induced human HepG2 cell model of hepatic steatosis assessed as reduction in total cellular cholesterol level at 25 uM preincubated with palmitic acid and oleic acid for 48 hrs followed by compound addition and measured after 24 hrs. It counts as functional, cell-based.
The test system of series [11] is HepG2. Description: Improvement of lipid metabolism in palmitic acid and oleic acid induced human HepG2 cell model of hepatic steatosis assessed as reduction in triglyceride level at 25 uM preincubated with palmitic acid and oleic acid for 48 hrs followed by compound addition and measured after 24 hrs. The format is functional, cell-based.
Series [12] relates to Mus musculus. Description: Antihypercholesterolemic activity against high cholesterol diet fed C57BL/6J mouse assessed as improvement in hepatocyte degeneration at 300 microg/kg, ip administered every 2 days for 15 days by H&E staining based analysis. It counts as functional, organism-based. As to conditions: dose 300.0 µg/kg, time 15.0 day.
Series [13] has as its system Mus musculus. Description: Antihypercholesterolemic activity against high cholesterol diet fed C57BL/6J mouse assessed as reduction of fine vacuoles in the cytoplasm at 300 microg/kg, ip administered every 2 days for 15 days by H&E staining based analysis. It counts as functional, organism-based. As to conditions: dose 300.0 µg/kg, time 15.0 day.
Series [14] has as its system Mus musculus. Description: Antihypercholesterolemic activity against high cholesterol diet fed C57BL/6J mouse assessed as reduction in hepatocyte lysis necrosis at 300 microg/kg, ip administered every 2 days for 15 days by H&E staining based analysis. It counts as functional, organism-based. As to conditions: dose 300.0 µg/kg, time 15.0 day.
Series [15] relates to Mus musculus. Description: Antihypercholesterolemic activity against high cholesterol diet fed C57BL/6J mouse assessed as improvement in hepatocyte liposis at 300 microg/kg, ip administered every 2 days for 15 days by H&E staining based analysis. The format is functional, organism-based. As to conditions: dose 300.0 µg/kg, time 15.0 day.
Series [16] concerns Mus musculus. Description: Antihypercholesterolemic activity against high cholesterol diet fed C57BL/6J mouse assessed as improvement in hepatocyte degeneration at 300 microg/kg, ip administered every 2 days for 15 days by Oil red staining based analysis. The format is functional, organism-based. As to conditions: dose 300.0 µg/kg, time 15.0 day.
The test system of series [17] is Mus musculus. Description: Antihypercholesterolemic activity against high cholesterol diet fed C57BL/6J mouse assessed as reduction of fine vacuoles in the cytoplasm at 300 microg/kg, ip administered every 2 days for 15 days by Oil red staining based analysis. As to conditions: dose 300.0 µg/kg, time 15.0 day. It counts as functional, organism-based.
Series [18] relates to Mus musculus. Description: Antihypercholesterolemic activity against high cholesterol diet fed C57BL/6J mouse assessed as reduction in hepatocyte lysis necrosis at 300 microg/kg, ip administered every 2 days for 15 days by Oil red staining based analysis. It counts as functional, organism-based. As to conditions: dose 300.0 µg/kg, time 15.0 day.
Series [19] deals with Mus musculus. Description: Antihypercholesterolemic activity against high cholesterol diet fed C57BL/6J mouse assessed as improvement in hepatocyte liposis at 300 microg/kg, ip administered every 2 days for 15 days by Oil red staining based analysis. The format is functional, organism-based. As to conditions: dose 300.0 µg/kg, time 15.0 day.
Series [20] has as its system Mus musculus. Description: Antihypercholesterolemic activity against high cholesterol diet fed C57BL/6J mouse assessed as reduction in degree of hepatic steatosis at 300 microg/kg, ip administered every 2 days for 15 days by Oil red staining based analysis. As to conditions: dose 300.0 µg/kg, time 15.0 day. The format is functional, organism-based.
Series [21] concerns Mus musculus. Description: Antihypercholesterolemic activity against high cholesterol diet fed C57BL/6J mouse assessed as reduction in degree of hepatic steatosis at 300 microg/kg, ip administered every 2 days for 15 days by H&E staining based analysis. It counts as functional, organism-based. As to conditions: dose 300.0 µg/kg, time 15.0 day.

The source made the active and inactive calls. No cut-off for these calls is given here.

The IC50 is the midpoint of a concentration-inhibition curve. Broadly, the Kd is the constant that tells how readily two partners part at equilibrium. With `COc1ccc2c(C[C@@H]3NC(=O)[C@@H]4CCCN4C3=O)c(CC=C(C)C)[nH]c2c1` [TRYPROSTATIN A], the result (in [1]; in [7]; in the series on HepG2 [9]; in the series with HepG2 [10]; with HepG2 [11]; with Mus musculus [12]) was Active. Also, the outcome in the series with Mus musculus [13], in the series on Mus musculus [14], in the series with Mus musculus [15], in the series on Mus musculus [16], in the series on Mus musculus [17] and with Mus musculus [18] was Active. Further, the outcome with Mus musculus [19], in the series on Mus musculus [20] and in the series with Mus musculus [21] was Active. Besides, the fold change (FC) in series [2] is 2.05; in [3] it was 5.01. Also, the result with HepG2 [4] and in the series with HepG2 [5] was inactive. The IC50 at 24 h in series [6] is over 50 µM. In addition, the Kd in series [8] amounted to 0.0102 µM.

These data come from ChEMBL document CHEMBL5376011, “Discovery of Anti-Hypercholesterolemia Agents Targeting LXRα from Marine Microorganism-Derived Natural Products” (J Nat Prod, 2024).
